Test results: patent publication US20240158418A1 (C4 Therapeutics, Inc., priority 2021, published 2024)
Where two headings read alike, the source gives them in different places.

How the values were obtained:
Assay type in all cases: cell-based
pY1068 EGFR L858R-T790M = biological target: T1, pY1068 EGFR L858R-T790M (Homo sapiens, UniProt P00533, L858R/T790M); assay: Phospho-EGFR (pY1068) inhibition HTRF, NCI-H1975; settings: 6 hours, read-out: pEGFR IC50
T1 construct: NCI-H1975 (harboring EGFR heterozygous L858R-T790M mutations); host or cells: NCI-H1975
Excerpt: (§1) NCI-H1975 (harboring EGFR heterozygous L858R-T790M mutations) and NCI-H3255 (harboring EGFR heterozygous L858R mutation) were purchased from ATCC and NCI, respectively. NCI-H1975+CS (harboring EGFR heterozygous L858R-T790M-C797S mutations) was generated using CRISPR technology to introduce the additional C797S mutation by Horizon Discovery. A431 (harboring EGFR wildtype) was purchased from ATCC. RPMI 1640 no-phenol red medium and fetal bovine serum (FBS) were purchased from Gibco (Grand Island, NY, USA). Cell culture flasks and 384-well microplates were acquired from VWR (Radnor, PA, USA). Phosphorylated (pY1068) EGFR and Total EGFR (using L858R-specific detection antibody and pan-EGFR antibody for EGFR mutant cell lines and EGFR wild-type cell lines, respectively) HTRF assay kits were purchased from Cisbio (Bedford, MA, USA).
(§2) Degradation of EGFR protein containing L858R mutation or wild-type was determined based on quantification of FRET signal using a Total EGFR (L858R-specific or pan-EGFR detecting) HTRF assay kit. Phospho-EGFR (pEGFR) inhibition was determined based on quantification of FRET signal using a pY1068 EGFR HTRF assay kit. In separate assay plates, test compounds were added to the 384-well plate from a top concentration of 10 μM with 11 points, half log titration in duplicates. For each assay, 12.5 uL of cells suspended in assay media (RPMI 1640 no-phenol red medium+10% FBS) at cell densities indicated for each cell line in Table 8 below were dispensed using a multi-channel pipette to 384-well low volume white HTRF microplates containing a duplicate concentration range of test compounds and DMSO controls. The plates were kept at 37° C. with 5% CO2 for 6 hours and then incubated with either phospho EGFR or Total EGFR HTRF detection antibodies according to the cell line and EGFR mutant being assayed. Cells treated in the absence of the test compound were the negative control. Positive control was set by wells containing all reagents but no cells. FRET signal was acquired on EnVision™ Multilabel Reader (PerkinElmer, Santa Clara, CA, USA). Compound concentration that achieves 50% degradation and inhibition was reported as DC50 and IC50, respectively.

pY1068 EGFR L858R = biological target: T2, pY1068 EGFR L858R (Homo sapiens, UniProt P00533, L858R); assay: Phospho-EGFR (pY1068) inhibition HTRF, NCI-H3255; settings: 6 hours, read-out: pEGFR IC50
T2 construct: NCI-H3255 (harboring EGFR heterozygous L858R mutation); host or cells: NCI-H3255
Excerpt: as §1, §2

EGFR L858R = EGFR L858R (Homo sapiens, UniProt P00533, L858R); assay: EGFR degradation, Total EGFR (L858R-specific) HTRF, NCI-H3255; set-up: NCI-H3255 (harboring EGFR heterozygous L858R mutation); host or cells: NCI-H3255; settings: 6 hours
Outline: (§3)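 FRET signal from HTRF kits measured phospho-EGFR at pY1068 or total EGFR after 6 h treatment at 37 °C. Compounds ran as 11-point half-log dilutions from 10 μM in duplicate, in cells in phenol red-free RPMI with 10% FBS. Concentrations giving 50% inhibition or degradation were reported as IC50 or DC50.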

EGFR L858R-T790M-C797S = biological target: T3, EGFR L858R-T790M-C797S (Homo sapiens, UniProt P00533, C797S/L858R/T790M); assay: EGFR degradation, Total EGFR (L858R-specific) HTRF, NCI-H1975+CS; settings: 6 hours
T3 construct: generated using CRISPR technology to introduce the additional C797S mutation by Horizon Discovery; host or cells: NCI-H1975+CS (CRISPR knock-in of C797S)
Outline: as §3

EGFR L858R-T790M = biological target: T4, EGFR L858R-T790M (Homo sapiens, UniProt P00533, L858R/T790M); assay: EGFR degradation, Total EGFR (L858R-specific) HTRF, NCI-H1975; settings: 6 hours
T4 construct: NCI-H1975 (harboring EGFR heterozygous L858R-T790M mutations); host or cells: NCI-H1975
Outline: as §3

[1] = biological target: T5, pY1068 EGFR L858R-T790M-C797S (Homo sapiens, UniProt P00533, C797S/L858R/T790M); assay: Phospho-EGFR (pY1068) inhibition HTRF, NCI-H1975+CS; settings: 6 hours, read-out: pEGFR IC50
T5 construct: generated using CRISPR technology to introduce the additional C797S mutation by Horizon Discovery; host or cells: NCI-H1975+CS (CRISPR knock-in of C797S)
Excerpt: as §1, §2

[2] = test system: BaF3 cells expressing EGFR L858R-T790M-L718Q; assay: Ba/F3 EGFR cell viability (CellTiter-Glo), L858R-T790M-L718Q; settings: Mus musculus, read-out: CTGlo (GI50)
Excerpt: (§4) RPMI 1640 media, cell culture flasks, and 384-well microplates were purchased from VWR (Radnor, PA, USA). Fetal bovine serum (FBS) was purchased from Life Technologies (Carlsbad, CA, USA) and CellTiter-Glo® was purchased from Promega (Madison, WI, USA). The Ba/F3 parental cell line was purchased from CrownBio (Santa Clara, CA). BaF3 cell lines ectopically expressing the EGFR mutations L858R, L858R-T790M, L858R-C797S, and L858R-T790M-C797S were purchased from CrownBio and EGFR mutations L858R-L718Q, L858R-T790M-L718Q, L858R-L792H, and L858R-T790M-L792H, were purchased from Signosis (Santa Clara, CA).
(§5) Cell viability was assessed based on the quantification of ATP using the CellTiter-Glo® assay (Promega, Madison, WI, USA). To determine the effect of compounds on cell viability, all Ba/F3 cell lines were plated at a cell density of 2000 cells/well in 384-well plates using RPMI 1640+10% FBS and treated with compounds of interest using a 10-point half-log dilution series in duplicate for 72 hours, with the highest dose set at […]. CellTiter-Glo® reagent was then added and luminescence signals were measured using an EnVision™ Multimode plate reader (Perkin Elmer, Santa Clara, CA). For data normalization, cells untreated with the test compounds at Time=72 hours were set to 100% (equivalent to maximal cell growth after 72 hours); cells untreated with the test compounds at Time=0 hours were set to 0% (equivalent to cytostasis); and media-only wells were set to −100% (equivalent to complete cytotoxicity). % Viability was determined by normalizing the signal with positive and DMSO treated negative controls on the same microtiter plate. The half-maximal inhibition of cell growth (GI50) is computed from where the fitted curve crosses 50% while the half-maximal lethal dose (LD50) is computed from where the fitted curve crosses −50%.

[3] = test system: BaF3 cells expressing EGFR L858R-L792H; assay: Ba/F3 EGFR cell viability (CellTiter-Glo), L858R-L792H; settings: Mus musculus, read-out: CTGlo (GI50)
Excerpt: as §4, §5

[4] = test system: BaF3 cells expressing EGFR L858R-L718Q; assay: Ba/F3 EGFR cell viability (CellTiter-Glo), L858R-L718Q; settings: Mus musculus, read-out: CTGlo (GI50)
Excerpt: as §4, §5

[5] = test system: BaF3 cells expressing EGFR L858R-T790M-C797S; assay: Ba/F3 EGFR cell viability (CellTiter-Glo), L858R-T790M-C797S; settings: Mus musculus, read-out: CTGlo (GI50)
Excerpt: as §4, §5

[6] = test system: BaF3 cells expressing EGFR L858R-T790M-L792H; assay: Ba/F3 EGFR cell viability (CellTiter-Glo), L858R-T790M-L792H; settings: Mus musculus, read-out: CTGlo (GI50)
Excerpt: as §4, §5

[7] = H1975 (L858R-T790M), read-out: tEGFR DC50
[8] = Table 9A, NCI-H1975 cells, Total EGFR HTRF, read-out: H1975 EGFR DC50
[9] = Table 9B, NCI-H3255 cells, Total EGFR HTRF, read-out: H3255 EGFR DC50
[10] = Table 9B, NCI-H1975 C797S clone, Total EGFR HTRF, read-out: H1975 C797S clone EGFR DC50
[11] = Table 9B, NCI-H1975 cells, Total EGFR HTRF, read-out: H1975 EGFR DC50

T3 sequence (P00533 25-1210 T790M/C797S/L858R): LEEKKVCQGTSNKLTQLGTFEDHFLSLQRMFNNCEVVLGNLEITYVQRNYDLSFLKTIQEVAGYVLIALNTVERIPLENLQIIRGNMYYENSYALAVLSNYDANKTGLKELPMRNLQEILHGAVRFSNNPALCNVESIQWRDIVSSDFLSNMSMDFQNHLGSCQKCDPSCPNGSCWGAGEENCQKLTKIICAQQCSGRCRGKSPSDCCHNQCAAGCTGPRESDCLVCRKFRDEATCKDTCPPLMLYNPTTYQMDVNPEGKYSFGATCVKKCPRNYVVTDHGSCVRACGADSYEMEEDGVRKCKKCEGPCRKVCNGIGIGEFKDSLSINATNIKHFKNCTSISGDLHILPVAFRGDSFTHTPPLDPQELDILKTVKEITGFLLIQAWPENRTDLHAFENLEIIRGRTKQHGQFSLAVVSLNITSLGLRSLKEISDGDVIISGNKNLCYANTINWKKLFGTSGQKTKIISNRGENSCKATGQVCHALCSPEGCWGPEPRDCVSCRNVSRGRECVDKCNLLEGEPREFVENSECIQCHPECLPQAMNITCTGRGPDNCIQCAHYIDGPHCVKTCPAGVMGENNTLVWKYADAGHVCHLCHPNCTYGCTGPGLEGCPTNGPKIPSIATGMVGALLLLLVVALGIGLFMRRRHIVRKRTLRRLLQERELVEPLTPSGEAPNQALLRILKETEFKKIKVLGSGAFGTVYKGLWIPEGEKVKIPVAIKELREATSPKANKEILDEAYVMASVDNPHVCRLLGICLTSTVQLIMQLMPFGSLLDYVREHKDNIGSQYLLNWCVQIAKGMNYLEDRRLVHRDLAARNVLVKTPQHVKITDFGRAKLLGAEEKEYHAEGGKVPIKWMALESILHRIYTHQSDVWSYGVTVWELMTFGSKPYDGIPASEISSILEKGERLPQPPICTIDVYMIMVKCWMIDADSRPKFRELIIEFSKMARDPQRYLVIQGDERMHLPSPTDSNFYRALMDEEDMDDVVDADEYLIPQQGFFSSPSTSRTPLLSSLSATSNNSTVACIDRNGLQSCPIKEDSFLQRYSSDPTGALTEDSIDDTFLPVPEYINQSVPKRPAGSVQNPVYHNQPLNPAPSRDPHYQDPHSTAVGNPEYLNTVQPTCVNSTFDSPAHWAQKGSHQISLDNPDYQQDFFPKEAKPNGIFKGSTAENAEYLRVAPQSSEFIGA
T4 sequence (P00533 25-1210 T790M/L858R): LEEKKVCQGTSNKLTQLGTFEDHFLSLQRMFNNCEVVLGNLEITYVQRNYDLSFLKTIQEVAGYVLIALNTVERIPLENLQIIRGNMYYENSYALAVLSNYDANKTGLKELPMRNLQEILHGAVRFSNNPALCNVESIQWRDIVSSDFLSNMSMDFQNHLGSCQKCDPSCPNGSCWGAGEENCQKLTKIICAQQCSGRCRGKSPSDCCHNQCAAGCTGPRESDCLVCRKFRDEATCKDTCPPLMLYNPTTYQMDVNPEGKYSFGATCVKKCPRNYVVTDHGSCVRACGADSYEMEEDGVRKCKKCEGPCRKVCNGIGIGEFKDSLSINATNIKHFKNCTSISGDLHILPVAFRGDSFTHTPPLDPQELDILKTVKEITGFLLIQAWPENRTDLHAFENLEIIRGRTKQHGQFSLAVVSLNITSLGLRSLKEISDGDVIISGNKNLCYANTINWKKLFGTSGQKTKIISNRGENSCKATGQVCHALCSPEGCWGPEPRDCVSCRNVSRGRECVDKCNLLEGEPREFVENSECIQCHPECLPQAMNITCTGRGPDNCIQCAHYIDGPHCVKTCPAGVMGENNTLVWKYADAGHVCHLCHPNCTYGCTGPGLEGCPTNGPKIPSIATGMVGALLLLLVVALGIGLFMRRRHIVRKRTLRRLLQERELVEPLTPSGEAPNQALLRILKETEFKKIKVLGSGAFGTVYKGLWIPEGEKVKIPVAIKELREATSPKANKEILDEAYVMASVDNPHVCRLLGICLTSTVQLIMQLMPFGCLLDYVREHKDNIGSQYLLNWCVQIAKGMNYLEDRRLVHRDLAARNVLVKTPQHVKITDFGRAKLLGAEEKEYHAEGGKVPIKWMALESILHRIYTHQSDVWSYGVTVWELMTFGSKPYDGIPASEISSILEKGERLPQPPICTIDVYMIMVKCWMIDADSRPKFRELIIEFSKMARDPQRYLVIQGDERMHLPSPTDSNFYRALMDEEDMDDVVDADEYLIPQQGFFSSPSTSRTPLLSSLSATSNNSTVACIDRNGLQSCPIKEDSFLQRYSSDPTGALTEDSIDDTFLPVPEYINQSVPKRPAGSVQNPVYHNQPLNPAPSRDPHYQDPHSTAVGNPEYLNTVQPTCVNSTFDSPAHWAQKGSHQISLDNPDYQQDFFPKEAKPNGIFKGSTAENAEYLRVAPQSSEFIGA
T1 sequence (P00533 25-1210 T790M/L858R): as above
EGFR L858R, sequence (P00533 25-1210 L858R): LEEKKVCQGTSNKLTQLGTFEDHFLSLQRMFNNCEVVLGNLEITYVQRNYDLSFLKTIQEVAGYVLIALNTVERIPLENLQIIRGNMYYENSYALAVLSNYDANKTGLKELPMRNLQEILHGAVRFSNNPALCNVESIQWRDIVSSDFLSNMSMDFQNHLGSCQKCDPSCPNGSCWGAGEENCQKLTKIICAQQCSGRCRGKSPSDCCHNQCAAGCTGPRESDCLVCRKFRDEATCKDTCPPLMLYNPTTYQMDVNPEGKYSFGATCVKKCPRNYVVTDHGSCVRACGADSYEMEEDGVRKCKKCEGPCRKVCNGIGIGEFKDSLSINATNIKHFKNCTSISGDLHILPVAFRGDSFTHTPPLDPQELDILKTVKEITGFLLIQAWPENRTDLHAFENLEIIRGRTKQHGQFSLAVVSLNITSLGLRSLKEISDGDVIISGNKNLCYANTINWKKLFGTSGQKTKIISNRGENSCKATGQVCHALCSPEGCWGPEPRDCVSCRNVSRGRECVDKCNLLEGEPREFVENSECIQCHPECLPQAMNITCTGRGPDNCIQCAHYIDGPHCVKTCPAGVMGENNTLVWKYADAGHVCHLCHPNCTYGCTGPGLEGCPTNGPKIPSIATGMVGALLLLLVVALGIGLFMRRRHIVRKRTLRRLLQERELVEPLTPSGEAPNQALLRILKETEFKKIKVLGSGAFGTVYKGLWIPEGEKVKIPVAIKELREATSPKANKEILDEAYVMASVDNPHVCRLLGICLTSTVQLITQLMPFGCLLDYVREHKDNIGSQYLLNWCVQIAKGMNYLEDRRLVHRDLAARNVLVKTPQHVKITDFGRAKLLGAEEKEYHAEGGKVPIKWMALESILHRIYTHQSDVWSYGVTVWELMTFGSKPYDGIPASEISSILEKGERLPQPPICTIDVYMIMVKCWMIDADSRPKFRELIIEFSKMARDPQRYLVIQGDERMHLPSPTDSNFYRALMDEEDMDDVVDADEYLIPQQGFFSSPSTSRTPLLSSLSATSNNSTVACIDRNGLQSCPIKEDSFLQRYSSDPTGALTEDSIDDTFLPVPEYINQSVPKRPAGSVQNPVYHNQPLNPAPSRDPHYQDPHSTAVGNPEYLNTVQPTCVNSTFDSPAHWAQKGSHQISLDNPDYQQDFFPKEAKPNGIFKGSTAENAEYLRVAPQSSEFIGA

IC50 (pY1068 EGFR L858R-T790M) [nM]	DC50 (EGFR L858R-T790M; [7]) [nM]	DC50 (EGFR L858R-T790M; [8]) [nM]	DC50 (EGFR L858R; [9]) [nM]	DC50 (EGFR L858R-T790M-C797S; [10]) [nM]	DC50 (EGFR L858R-T790M; [11]) [nM]	SMILES	further results
17	15	< 50				O=C1CCC(Nc2ccc(N3CCC(O)(CC(=O)N4CC5(C4)CN(c4ccc(-c6cc(F)c7c(c6)C(=O)N(C(C(=O)Nc6nccs6)c6ncn8c6CCC8)C7)cc4)C5)CC3)c(Cl)c2)C(=O)N1 (single isomer, unassigned; isomer 1) [Compound 7, 2-(6-(4-(6-(2-(1-(2-chloro-4-((2,6-dioxopiperidin-3-yl)amino)phenyl)-4-hydroxypiperidin-4-yl)acetyl)-2,6-diazaspiro[3.3]heptan-2-yl)phenyl)-4-fluoro-1-oxoisoindolin-2-yl)-2-(6,7-dihydro-5H-pyrrolo[1,2-c]imidazol-1-yl)-N-(thiazol-2-yl)acetamide, isomer 1]	GI50 [2]: 45 nM; GI50 [3]: 7 nM; GI50 [4]: 17 nM; GI50 [5]: 10 nM; GI50 [6]: 23 nM
20	15	< 50				O=C1CC[C@H](Nc2ccc(N3CCC(O)(CC(=O)N4CC5(CCN(c6ccc(-c7cc(F)c8c(c7)C(=O)N(C(C(=O)Nc7nccs7)c7ncn9c7CCC9)C8)cc6)CC5)C4)CC3)c(F)c2)C(=O)N1 (stereo partly drawn) [Compound 12]	
		< 50				O=C1CC[C@H](Nc2ccc(C3CCN(C(=O)CN4CCN(Cc5ccc(-c6cc(F)c7c(c6)C(=O)N(C(C(=O)Nc6nccs6)c6ncn8c6CCC8)C7)cc5)CC4)CC3)c(F)c2)C(=O)N1 (stereo partly drawn) [Compound 59, 2-(6,7-dihydro-5H-pyrrolo[1,2-c]imidazol-1-yl)-2-[6-[4-[[4-[2-[4-[4-[[(3S)-2,6-dioxo-3-piperidyl]amino]-2-fluoro-phenyl]-1-piperidyl]-2-oxo-ethyl]piperazin-1-yl]methyl]phenyl]-4-fluoro-1-oxo-isoindolin-2-yl]-N-thiazol-2-yl-acetamide]	DC50 (EGFR L858R; Table 9A, NCI-H3255 cells, Total EGFR HTRF, read-out: H3255 EGFR DC50): < 50 nM; DC50 (EGFR L858R-T790M-C797S; Table 9A, NCI-H1975+CS cells, Total EGFR HTRF, read-out: H1975+ CS EGFR DC50): < 50 nM
			< 50	< 50	< 50	Cn1nc(N2CCC(=O)NC2=O)c2ccc([C@@H]3CCN(CC(=O)N4CC5(C4)CN(c4ccc(-c6cc(F)c7c(c6)C(=O)N(C(C(=O)Nc6nccs6)c6ncn8c6CCC8)C7)cc4)C5)CC3(F)F)cc21 (stereo partly drawn) [Compound 94, 2-(6,7-dihydro-5H-pyrrolo[1,2-c]imidazol-1-yl)-2-(6-(4-(6-(2-((S)-4-(3-(2,4-dioxotetrahydropyrimidin-1(2H)-yl)-1-methyl-1H-indazol-6-yl)-3,3-difluoropiperidin-1-yl)acetyl)-2,6-diazaspiro[3.3]heptan-2-yl)phenyl)-4-fluoro-1-oxoisoindolin-2-yl)-N-(thiazol-2-yl)acetamide]	

Second part, the compound before the results:

SMILES	IC50 (pY1068 EGFR L858R-T790M) [nM]	DC50 (EGFR L858R-T790M; [7]) [nM]	DC50 (EGFR L858R-T790M; [8]) [nM]	DC50 (EGFR L858R; [9]) [nM]	DC50 (EGFR L858R-T790M-C797S; [10]) [nM]	DC50 (EGFR L858R-T790M; [11]) [nM]	further results
O=C1CCC(Nc2ccc(C3CCN(CC(=O)N4CC5(C4)CN(c4ccc(-c6cc(F)c7c(c6)C(=O)N(C(C(=O)Nc6nccs6)c6ncn8c6CCC8)C7)cc4)C5)CC3(F)F)cc2)C(=O)N1 (single isomer, unassigned) [Compound 4, 2-(6,7-dihydro-5H-pyrrolo[1,2-c]imidazol-1-yl)-2-(6-(4-(6-(2-(4-(4-((2,6-dioxopiperidin-3-yl)amino)phenyl)-3,3-difluoropiperidin-1-yl)acetyl)-2,6-diazaspiro[3.3]heptan-2-yl)phenyl)-4-fluoro-1-oxoisoindolin-2-yl)-N-(thiazol-2-yl)acetamide]	15	15	< 50				IC50 (pY1068 EGFR L858R): 16 nM; DC50 (EGFR L858R; H3255 (L858R), read-out: tEGFR DC50): 17 nM; DC50 (EGFR L858R-T790M-C797S; H1975 + CS (L858R-T790M-C797S), read-out: tEGFR DC50): 33 nM; IC50 [1]: 22 nM
O=C1CCC(Nc2ccc(C3CCN(CC(=O)N4CCC(NC(=O)c5ccc(C#Cc6cc(F)c7c(c6)C(=O)N(C(C(=O)Nc6nccs6)c6ncn8c6CCC8)C7)cn5)CC4)CC3)cc2)C(=O)N1 (stereo not drawn) [Compound 97, 5-((2-(1-(6,7-dihydro-5H-pyrrolo[1,2-c]imidazol-1-yl)-2-oxo-2-(thiazol-2-ylamino)ethyl)-7-fluoro-3-oxoisoindolin-5-yl)ethynyl)-N-(1-(2-(4-(4-((2,6-dioxopiperidin-3-yl)amino)phenyl)piperidin-1-yl)acetyl)piperidin-4-yl)picolinamide]				< 50	< 50	< 50	
O=C1CC[C@@H](Nc2ccc(N3CCC(O)(CC(=O)N4CC5(C4)CN(c4ccc(-c6cc(F)c7c(c6)C(=O)N(C(C(=O)Nc6nccs6)c6ncn8c6CCC8)C7)cc4)C5)CC3)c(F)c2)C(=O)N1 (stereo partly drawn) [Compound 98, 2-(6,7-dihydro-5H-pyrrolo[1,2-c]imidazol-1-yl)-2-[6-[4-[2-[2-[1-[4-[[(3R)-2,6-dioxo-3-piperidyl]-amino]-2-fluoro-phenyl]-4-hydroxy-4-piperidyl]acetyl]-2,6-diazaspiro[3.3]heptan-6-yl]phenyl]-4-fluoro-1-oxo-isoindolin-2-yl]-N-thiazol-2-yl-acetamide]				< 50	< 50	< 50	
